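Assay format: 96-well plates, 48-hour exposure. Abbreviation: GI50, concentration required for 50% inhibition of growth.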 The source made the active and inactive calls. Rule as the data show it: active = GI50 up to about 1.1 µM and inactive = higher. Non-standard residues stand in square brackets, D forms with d. Residues, ends and D or L forms follow the SMILES beside them. *: point of attachment. hSer = N[CH](CCO)C(=O)O; Boc = CC(C)(C)OC(=O)* Some results are limits rather than exact numbers.

Some test systems named below: OVCAR-3; LOX IMVI; M14; HCC 2998; MOLT-4; UO-31; RXF 393; COLO 205; OVCAR-8; SK-MEL-28; RPMI-8226; A498; LXFL 529; SF-268; SF-539; HOP-62; MDA-N; PC-3; MDA-MB-231; Hs-578T.
Common to all, as to assay: NCI anticancer screen, dose series, 48 h

Take `CC1=CCCC2C(C=O)(C1)CC(C)C2(CO)CC/C(=C/CO)CO` (stereo not given): the GI50 in the assay with OVCAR-3 was > 100 µM (inactive); in the assay on LOX IMVI it was > 100 µM (inactive); in the assay on M14, > 100 µM (inactive); with HCC 2998, > 100 µM (inactive); in the assay on MOLT-4, 44.7 µM (inactive); in the assay with UO-31, 24.9 µM (inactive). Also, the GI50 in the assay on RXF 393 is > 100 µM (inactive); with COLO 205, > 100 µM (inactive); with OVCAR-8, > 100 µM (inactive); in the assay on SK-MEL-28, > 100 µM (inactive); in the assay with RPMI-8226, 67.3 µM (inactive); in the assay with A498, > 100 µM (inactive). Moreover, in the assay on LXFL 529, the GI50 is 79.3 µM (inactive).
As for `COc1cc2c(cc1OC)C1c3ccccc3C(C#N)(C2)N(C(=O)c2ccccc2)C1O` (stereo not given), the GI50 is 52.1 µM (inactive) in the assay with OVCAR-3; > 100 µM (inactive) in the assay on LOX IMVI; > 100 µM (inactive) in the assay with SF-268; > 100 µM (inactive) in the assay with SF-539; 79.1 µM (inactive) with M14; > 100 µM (inactive) in the assay on HCC 2998. The GI50 in the assay with MOLT-4 was 35.2 µM (inactive); in the assay on UO-31, 61.8 µM (inactive); with RXF 393, 85.5 µM (inactive); in the assay with COLO 205 it was 22.8 µM (inactive); in the assay with OVCAR-8, 54.2 µM (inactive); with SK-MEL-28 it was > 100 µM (inactive). Moreover, the GI50 with RPMI-8226 was 45 µM (inactive); in the assay on HOP-62, 25.7 µM (inactive); in the assay with LXFL 529 it was 46.6 µM (inactive).
Consider `CC1(Cl)CC(C)(/C=C/Cl)C(Cl)CC1Cl` (stereo not given), for which the GI50 with OVCAR-3 was 14.5 µM (inactive); in the assay on SF-268, 15.9 µM (inactive); in the assay with SF-539, 17.1 µM (inactive); in the assay on M14, 17 µM (inactive); with HCC 2998, 17.1 µM (inactive); with MOLT-4 it was 14.3 µM (inactive). The GI50 with UO-31 was 16.1 µM (inactive); with RXF 393, 14.8 µM (inactive); in the assay with OVCAR-8, 16.8 µM (inactive); with SK-MEL-28, 15 µM (inactive); in the assay on A498 it was 19.2 µM (inactive); in the assay on HOP-62, 19.9 µM (inactive). In addition, the GI50 in the assay with LXFL 529 is 14.7 µM (inactive).
As for `O=C1C2C(C(=O)N1c1ccccc1)C1([N+](=O)[O-])C=C3c4ccccc4N(C(=O)c4ccccc4)C32C2C(=O)N(c3ccccc3)C(=O)C21` (stereo not given), the GI50 in the assay with OVCAR-3 is > 100 µM (inactive); in the assay with LOX IMVI it was > 100 µM (inactive); in the assay on SF-268, > 100 µM (inactive); in the assay on SF-539, > 10 µM (inactive); in the assay with M14, > 100 µM (inactive); in the assay on HCC 2998, > 100 µM (inactive). For the same molecule, the GI50 in the assay with MOLT-4, in the assay on UO-31, with COLO 205, with OVCAR-8, with SK-MEL-28 and with A498 was > 100 µM (inactive) each time. Also, the GI50 in the assay with HOP-62 and in the assay on LXFL 529 was > 100 µM (inactive) throughout.
With `Cc1cccc(C)c1NC(=O)CCC(=O)/N=C(\N)NC#N`, the GI50 in the assay on OVCAR-3, in the assay on LOX IMVI, with SF-268, with SF-539, in the assay on M14 and with HCC 2998 was > 100 µM (inactive) throughout. Moreover, the GI50 in the assay with MOLT-4 is > 100 µM (inactive); with UO-31, > 100 µM (inactive); with RXF 393, > 100 µM (inactive); with COLO 205, > 100 µM (inactive); in the assay with OVCAR-8 it was > 100 µM (inactive); in the assay on SK-MEL-28, 77.8 µM (inactive). For the same molecule, the GI50 in the assay with RPMI-8226, in the assay on A498, with HOP-62 and with LXFL 529 was > 100 µM (inactive) throughout.
As for `CCN(c1n[n+]2c(-c3ccccc3)csc2s1)c1n[n+]2c(-c3ccccc3)csc2s1`, the GI50 is 71.8 µM (inactive) with OVCAR-3; 57.9 µM (inactive) in the assay on LOX IMVI; > 100 µM (inactive) in the assay with SF-268; > 100 µM (inactive) with SF-539; 92.5 µM (inactive) with M14; > 100 µM (inactive) in the assay on HCC 2998. Besides, the GI50 was 37.5 µM (inactive) with MOLT-4; > 100 µM (inactive) with UO-31; 65.9 µM (inactive) with RXF 393; 26.4 µM (inactive) in the assay with COLO 205; 74.3 µM (inactive) in the assay on OVCAR-8; 79.1 µM (inactive) with SK-MEL-28. Also, the GI50 is 29.6 µM (inactive) with RPMI-8226 and 50.9 µM (inactive) in the assay on LXFL 529.
For the molecule `CCOc1ccccc1NC(=O)C1=C(C)NC(C)=C(C(=O)Nc2ccccc2OCC)C1c1cccc([N+](=O)[O-])c1`, the GI50 is 80.9 µM (inactive) in the assay with OVCAR-3; 66.8 µM (inactive) in the assay with LOX IMVI; > 100 µM (inactive) in the assay on SF-268; 40.2 µM (inactive) in the assay with SF-539; > 100 µM (inactive) in the assay with M14; 36.6 µM (inactive) in the assay with HCC 2998. In addition, the GI50 is 11.8 µM (inactive) in the assay with MOLT-4; 28.2 µM (inactive) in the assay on UO-31; 47.4 µM (inactive) in the assay with RXF 393; > 100 µM (inactive) in the assay with COLO 205; 86.5 µM (inactive) in the assay on OVCAR-8; > 100 µM (inactive) in the assay with SK-MEL-28. Moreover, the GI50 in the assay with RPMI-8226 was 8.22 µM (inactive); in the assay with A498 it was 51.2 µM (inactive); in the assay with HOP-62, 39.3 µM (inactive); in the assay with LXFL 529, 24 µM (inactive).
Regarding `COc1ccc(C2ON(c3cccc(C)n3)CC=C2C)cc1` (stereo not given), the GI50 was > 100 µM (inactive) with OVCAR-3; 41.5 µM (inactive) in the assay on LOX IMVI; 60.1 µM (inactive) in the assay on SF-268; 60 µM (inactive) in the assay on SF-539; 32.6 µM (inactive) with M14; 59.3 µM (inactive) in the assay on HCC 2998. Further, the GI50 in the assay with MOLT-4 is 36.4 µM (inactive); with UO-31, 45.7 µM (inactive); in the assay on RXF 393, 29.4 µM (inactive); in the assay with COLO 205 it was 41.4 µM (inactive); in the assay on OVCAR-8 it was > 100 µM (inactive); in the assay on SK-MEL-28, 23.7 µM (inactive). For the same molecule, the figures for the GI50 with RPMI-8226, in the assay with HOP-62 and in the assay on LXFL 529 were 30.9 µM (inactive), 65.3 µM (inactive) and 37.2 µM (inactive), respectively.
With `O=C(c1ccccc1)C1N=NN(Cc2ccccc2[N+](=O)[O-])C1C(=O)c1ccccc1` (stereo not given), the GI50 in the assay with OVCAR-3 was > 100 µM (inactive); with LOX IMVI, > 100 µM (inactive); in the assay with SF-268, > 100 µM (inactive); in the assay with M14 it was > 100 µM (inactive); in the assay on HCC 2998, 96.8 µM (inactive); in the assay with MOLT-4 it was > 100 µM (inactive). The GI50 in the assay with UO-31 was > 100 µM (inactive); with RXF 393, > 100 µM (inactive); with COLO 205, 34.5 µM (inactive); in the assay with OVCAR-8 it was > 100 µM (inactive); in the assay on SK-MEL-28 it was > 100 µM (inactive); in the assay on RPMI-8226 it was > 100 µM (inactive). For the same molecule, the GI50 with HOP-62 and in the assay on LXFL 529 was > 100 µM (inactive) each time.
With `CC1=C(C(=O)NCc2ccccc2)C(c2ccc(Cl)c(Cl)c2)C(C(=O)NCc2ccccc2)=C(C)N1`, the GI50 in the assay with OVCAR-3, in the assay with LOX IMVI, with SF-268, in the assay with SF-539, in the assay on M14 and with HCC 2998 was > 100 µM (inactive) each time. Also, the GI50 in the assay with MOLT-4, in the assay on UO-31, with RXF 393, in the assay with OVCAR-8, in the assay with SK-MEL-28 and in the assay on RPMI-8226 was > 100 µM (inactive) each time. Also, the GI50 in the assay with A498, with HOP-62 and in the assay on LXFL 529 was > 100 µM (inactive) each time.
As to `CC(C)N(C(=O)C12C3C4C1C1C2C3C41I)C(C)C` (stereo not given), the GI50 in the assay on OVCAR-3 is > 100 µM (inactive); in the assay with SF-268, > 100 µM (inactive); in the assay with SF-539, > 10 µM (inactive); with M14 it was > 100 µM (inactive); in the assay with HCC 2998, > 100 µM (inactive); in the assay on MOLT-4, > 100 µM (inactive). The GI50 in the assay on UO-31, with COLO 205, with OVCAR-8, with SK-MEL-28, in the assay on A498 and in the assay with LXFL 529 was > 100 µM (inactive) throughout.
`COCCC(NC(=O)C(CC(C)C)NC(=O)OC(C)(C)C)C(N)=O` (stereo not drawn) (Boc-Leu-[hSer](Me)-NH2; configuration not given here): the GI50 in the assay on OVCAR-3, with MDA-N, in the assay on LOX IMVI, in the assay with SF-268, in the assay on SF-539 and in the assay on M14 was > 100 µM (inactive) each time. Further, the GI50 in the assay on HCC 2998, in the assay on PC-3, with MDA-MB-231, in the assay with Hs-578T, with MOLT-4 and in the assay on UO-31 was > 100 µM (inactive) each time. Also, the GI50 in the assay on RXF 393, in the assay with COLO 205, in the assay with OVCAR-8, in the assay on SK-MEL-28, with RPMI-8226 and in the assay with A498 was > 100 µM (inactive) in each case. Also, in the assay on HOP-62, the GI50 was > 100 µM (inactive).
As for `COc1cc(/C=C2\C(=O)N(c3ccc(Cl)cc3)C(c3ccccc3)S2(=O)=O)cc(OC)c1OC` (stereo not given), the GI50 in the assay with OVCAR-3 is 25.4 µM (inactive); with MDA-N, 2.04 µM (inactive); in the assay with LOX IMVI, 4.55 µM (inactive); with SF-268, 31 µM (inactive); in the assay on SF-539, 57 µM (inactive); in the assay with M14, 0.522 µM (active). In addition, the GI50 is 41.4 µM (inactive) with HCC 2998; 22.8 µM (inactive) in the assay on PC-3; > 69.3 µM (inactive) in the assay on MDA-MB-231; > 100 µM (inactive) with Hs-578T; 26.9 µM (inactive) in the assay with MOLT-4; 3.48 µM (inactive) with UO-31. Besides, the GI50 in the assay with RXF 393 is 22.4 µM (inactive); in the assay with COLO 205 it was 1.99 µM (inactive); with OVCAR-8, 93.1 µM (inactive); in the assay with SK-MEL-28, > 54.3 µM (inactive); with RPMI-8226 it was 7.46 µM (inactive); in the assay on A498, > 45.5 µM (inactive). Further, the GI50 with HOP-62 is > 34.5 µM (inactive).

For the origin of these results see ChEMBL document CHEMBL1201862, “PubChem BioAssay data set” (2004).
